Test results from patent US20230203044A1, “PYRAZOLO[1,5-D][1,2,4]TRIAZINE-5(4H)-ACETAMIDES AS INHIBITORS OF THE NLRP3 INFLAMMASOME” (JANSSEN PHARMACEUTICA NV, priority 2020, published 2023).

Experiments:
TNF = assay: PBMC assay: TNF cytokine levels in LPS-stimulated human PBMCs (MSD); assay type: cell-based; conditions: 100 ng/ml LPS for 6 hrs, TNF in supernatant via MSD
Procedure: (§1) Peripheral venous blood was collected from healthy individuals and human peripheral blood mononuclear cells (PBMCs) were isolated from blood by Ficoll-Histopaque (Sigma-Aldrich, A0561) density gradient centrifugation. After isolation, PBMCs were stored in liquid nitrogen for later use. Upon thawing, PBMC cell viability was determined in growth medium (RPMI media supplemented with 10% fetal bovine serum, 1% Pen-Strep and 1% L-glutamine). Compounds were spotted in a 1:3 serial dilution in DMSO and diluted to the final concentration in 30 μl medium in 96 well plates (Falcon, 353072). PBMCs were added at a density of 7.5×10^4 cells per well and incubated for 30 min in a 5% CO2 incubator at 37° C. LPS stimulation was performed by addition of 100 ng/ml LPS (final concentration, Invivogen, tlrl-smlps) for 6 hrs followed by collection of cellular supernatant and the analysis of IL-1β (μM) and TNF cytokines levels (μM) via MSD technology according to manufacturers' guidelines (MSD, K151A0H).
The IC50 values (for IL-1β) and EC50 values (TNF) were obtained on compounds of the invention/examples, and are depicted in the following table: […]

NLRP3 inflammasome = assay: PBMC assay: IL-1β in LPS-stimulated human PBMCs (MSD); assay type: cell-based; conditions: human PBMCs, 100 ng/ml LPS for 6 hrs, IL-1β in supernatant via MSD, read-out: IL1β IC50
Procedure: The activity of a compound according to the present invention can be assessed by in vitro methods.
as §1, with “Compounds were spotted in a 1:3 serial dilution in DMSO and diluted to the final concentration in 30 μl medium in 96 well plates (Falcon, 353072).” left out

Compound	EC50 (TNF) [nM]	IC50 (NLRP3 inflammasome) [nM]
CC(C)c1nn(CC(=O)Nc2cncc(F)c2)c(=O)c2cc(C3CC3)nn12 [Final Cpd 112]	> 10000	880
Cc1ncccc1NC(=O)Cn1nc(C(C)C)n2nc(C3CC3)cc2c1=O [Final Cpd 113]	> 10000	850
Cc1cn2nc(NC(=O)Cn3nc(C(C)C)n4nc(C5CC5)cc4c3=O)ccc2n1 [Final Cpd 114]	> 10000	350
CC(C)c1nn(CC(=O)Nc2cncnc2)c(=O)c2cc(C3CC3)nn12 [Final Cpd 115]	> 10000	1720
CC(C)c1nn(CC(=O)Nc2ccc(C(F)F)nc2)c(=O)c2cc(C3CC3)nn12 [Final Cpd 116]	> 10000	1230
CC(C)c1nn(CC(=O)Nc2cncc(Cl)c2)c(=O)c2cc(C3CC3)nn12 [Final Cpd 117]	> 10000	1410
CC(C)c1nn(CC(=O)Nc2ccncc2)c(=O)c2cc(C3CC3)nn12 [Final Cpd 118]	> 10000	110
CC(C)c1nn(CC(=O)Nc2cccnc2)c(=O)c2cc(C3CC3)nn12 [Final Cpd 119]	> 10000	520
Cc1nccc(NC(=O)Cn2nc(C(C)C)n3nc(C4CC4)cc3c2=O)c1Cl [Final Cpd 120]	> 10000	550
COc1cncc(NC(=O)Cn2nc(C(C)C)n3nc(C4CC4)cc3c2=O)c1 [Final Cpd 121]	> 10000	3060
Cc1ccc(NC(=O)Cn2nc(C(C)C)n3nc(C4CC4)cc3c2=O)cn1 [Final Cpd 122]	> 10000	820
CC(C)c1nn(CC(=O)Nc2ccnc(N(C)C)c2)c(=O)c2cc(C3CC3)nn12 [Final Cpd 123]	> 10000	1040
Cc1c(NC(=O)Cn2nc(C(C)C)n3nc(C4CC4)cc3c2=O)ccnc1Cl [Final Cpd 124]	> 10000	610
COc1ccncc1NC(=O)Cn1nc(C(C)C)n2nc(C3CC3)cc2c1=O [Final Cpd 125]	> 10000	9370
CC(C)c1nn(CC(=O)Nc2ccc3cn[nH]c3c2)c(=O)c2cc(C3CC3)nn12 [Final Cpd 126]	> 10000	70
Cc1cc(NC(=O)Cn2nc(C(C)C)n3nc(C4CC4)cc3c2=O)ccn1 [Final Cpd 127]	> 10000	180
CC(C)c1nn(CC(=O)Nc2ccc3cnnn3c2)c(=O)c2cc(C3CC3)nn12 [Final Cpd 128]	> 10000	2550

Other lines, results leading:

EC50 (TNF) [nM]	IC50 (NLRP3 inflammasome) [nM]	Compound
> 10000	670	COc1cc(NC(=O)Cn2nc(C(C)C)n3nc(C4CC4)cc3c2=O)ccn1 [Final Cpd 129]
> 10000	530	CC(C)c1nn(CC(=O)Nc2ccnc(C(F)F)c2)c(=O)c2cc(C3CC3)nn12 [Final Cpd 130]
> 10000	3570	Cc1ncc(NC(=O)Cn2nc(C(C)C)n3nc(C4CC4)cc3c2=O)cn1 [Final Cpd 131]
> 10000	720	COc1nccc(NC(=O)Cn2nc(C(C)C)n3nc(C4CC4)cc3c2=O)n1 [Final Cpd 132]
≥ 10000	440	CC(C)c1nn(CC(=O)Nc2ccncc2Cl)c(=O)c2cc(C3CC3)nn12 [Final Cpd 133]
> 10000	230	Cc1cnccc1NC(=O)Cn1nc(C(C)C)n2nc(C3CC3)cc2c1=O [Final Cpd 134]
> 10000	6930	CC(C)c1nn(CC(=O)Nc2cnccc2Cl)c(=O)c2cc(C3CC3)nn12 [Final Cpd 135]
> 10000	1410	CC(C)c1nn(CC(=O)Nc2ccn3c(F)cnc3c2)c(=O)c2cc(C3CC3)nn12 [Final Cpd 136]
> 10000	1230	Cc1cc(NC(=O)Cn2nc(C(C)C)n3nc(C4CC4)cc3c2=O)nc(C)n1 [Final Cpd 137]
> 10000	> 10000	Cc1ccncc1NC(=O)Cn1nc(C(C)C)n2nc(C3CC3)cc2c1=O [Final Cpd 138]
